Assay results from patent publication US7579324B2, “Conjugates of biologically active compounds, methods for their preparation and use, formulation and pharmaceutical applications thereof” (c-a-i-r biosciences GmbH, priority 2002, dated 2009).
pIC50: −log10 of the molar value.

Key:
E. coli (DH5α) = assay: Antibiotic activity testing (TC50, dilution assay); type: cell-based; details: concentration that inhibits 50% of growth, turbidity OD600
Protocol: The TC50 or MIC procedure for antibiotic sensitivity testing involves an antibiotic dilution assay, which can be performed in microtitre plates. A series of twofold dilutions of each antibiotic are made in the wells, and then all wells are inoculated with a standard amount of the same test organism. After incubation, growth in the presence of the various antibiotics is observed by measuring turbidity.
Bacteria: B. pumilus and E. coli (DH5α)
Bacterial cultures are initiated from the plates for 2 to 3 weeks. After this time period bacteria are streaked out on new plates from the backups stored at −80° C. Due to the lack of resistance of the bacteria, new cultures are not to be initiated from an old plate or any liquid cultures derived from old plates.
Growth medium (GM)(per liter): 10 g Bacto-tryptone, 5 g Bacto-yeast extract, 6 g HEPES (25 mM), 5.4 g NaCl, pH 7.3
Compound stocks 10 or 100 mM in DMSO stored at −20° C.
1. Grow B.pumilus from an LB agar plate in a flask (max. 10% volume) up to about 50 ml in growth medium (GM)
2. Dilute overnight suspension 1:10 in GM
3. Determine OD600 of diluted bacterial suspension
4. Dilute bacterial suspension in GM to an OD600 of 0.03-0.04. (6 ml/plate)
5. Add 200 μl GM to the outer wells (Row A, Row H, Column 1, Column 12)
6. Add 100 μl GM to each well starting from C2, row 3.
7. Controls: Wells B2-B4 growth control. Wells B6-B8 blank. Row C growth inhibition control. • 7.1. To wells B2-B4 add: 96 μl GM, 4 μl DMSO, and 100 μl bacterial suspension adjusted to an OD600 of 0.03-0.04. • 7.2. To wells B6-B8 add: 196 μl GM and 4 μl DMSO • 7.3. Dilute a 10 mM COMPOUND 43 (positive control) stock to 800 μM (120 μl/plate) in GM. Add 100 μl of 800 μM COMPOUND 43 solution to well C2.
8. Samples • 8.1. Dilute the 10 or 100 mM stock solutions to 800 μM (250 μl/plate) in GM. • 8.2. Add 100 μl of 800 μM sample in duplicates to wells D2/E2 resp. F2/G2. • 8.3. 2-fold serial dilution of all samples and Azithromycin • 8.3.1. Rows C-G, Columns 2: Mix and transfer 100 μl from each row to Column 3, and continue until column 11. […]
11. Determine OD600 on plate reader.

HeLa or JURKAT cells = assay: Cytotoxicity assay (Alamar Blue) with guanosine rescue; type: cell-based
Protocol: HeLa cells (DSMZ, ACC 57) and Jurkat cells (DSMZ, ACC 282) in exponential growth phase are exposed for 3 days to test compounds. The number of surviving cells is then determined by the Alamar Blue assay (Serotec Inc.). This assay incorporates a fluorometric growth indicator based on detection of metabolic activity. Specifically, the system incorporates an oxidation-reduction indicator that fluoresces in response to chemical reduction of the growth medium resulting from cell growth. As cells grow in culture, innate metabolic activity results in a chemical reduction of the immediate surrounding environment. Continued growth maintains a reduced environment while inhibition of growth maintains an oxidized environment. […] Fluorescence is monitored at 560 nm (Exc.) and 590 nm Em.
HeLa cells (1×10^3) or JURKAT cells (1×10^3) are plated in 100 μl MEM medium (with Earle's salt; Biochrom KG) containing 10% FBS, 2 mM L-glutamine, and non-essential animo acids in 96-well plates and incubated at 37° C. and 5% CO2 atmosphere. […] The fluorescence is then measured as described above and the LD50 is determined based on a sigmoidal dose response regression. […] Any toxicity still detected can then be ascribed either to other biological effects of the of T—L—C conjugate of mycophenolic acid, or is due to the very high intracellular concentration of mycophenolic acid, following concentrative uptake into the cell.

SMILES | TC50 in E. coli (E. coli (DH5α)) [µM] | effect in the presence of guanosine (HeLa or JURKAT cells; 50 μM guanosine in culture medium) | pIC50 (HeLa or JURKAT cells; normal culture conditions, HeLa or JURKAT)
CC[C@H]1OC(=O)[C@H](C)[C@@H](O[C@H]2C[C@@](C)(OC)[C@@H](O)[C@H](C)O2)[C@H](C)[C@@H](O[C@@H]2O[C@H](C)CC(N(C)C(=O)CN(C)CCO)[C@H]2O)[C@](C)(O)C[C@@H](C)CN(C)[C@H](C)[C@@H](O)[C@]1(C)O (some centres unmarked) [COMPOUND 45] | >50 | – | –
COc1c(C)c2c(c(O)c1C/C=C(\C)CCC(=O)O)C(=O)OC2 [Mycophenolic acid] | – | completely removed | > 5.70
CC[C@H]1OC(=O)[C@H](C)[C@@H](O[C@H]2C[C@@](C)(OC)[C@@H](O)[C@H](C)O2)[C@H](C)[C@@H](O[C@@H]2O[C@H](C)C[C@H](N(C)C)[C@H]2O)[C@](C)(O)C[C@@H](C)CN(C)[C@H](C)[C@@H](O)[C@]1(C)O [COMPOUND 43, 9a-aza-9a-methyl-9-deoxo-9a-homoerythromycin A, reference compound] | 2.3 | – | –
CC[C@H]1OC(=O)[C@H](C)C(=O)[C@H](C)[C@@H](O[C@@H]2O[C@H](C)C[C@H](N(C)C)[C@H]2OC(=O)Cc2ccccc2Nc2c(Cl)cccc2Cl)[C@](C)(O)C[C@@H](C)CN(C)[C@H](C)[C@@H](O)[C@]1(C)O [COMPOUND 53] | >50 | – | –
